We go through 11 molecules from patent publication US7456214B2, “Chromene-containing compounds with anti-tubulin and vascular targeting activity” (Baylor University, priority 2004, dated 2008).

pIC50: −log10 of the molar value. In brackets after ≈: the same amount, converted by molar mass. Where a name gives a salt, the structure may show the parent alone. Bounds are passed on as bounds.

One experiment deals with purified tubulin. The experiment can be described thus: In vitro inhibition of tubulin polymerization. It counts as biochemical, bovine. The settings on record: 1.5 mg/ml tubulin, 15 min preincubation at 37° C., GTP-induced, 350 nm. The procedure: IC50 values for tubulin polymerization were determined according to a previously described procedure (Bai et al., Cancer Research, 1996). Purified tubulin is obtained from bovine brain cells as previously described (Hamel and Lin, Biochemistry, 1984). Various amounts of inhibitor were preincubated for 15 minutes at 37° C. with purified tubulin. After the incubation period, the reaction was cooled and GTP was added to induce tubulin polymerization. Polymerization was then monitored in a Gilford spectrophotometer at 350 nm. The final reaction mixtures (0.25 ml) contained 1.5 mg/ml tubulin, 0.6 mg/ml microtubule-associated proteins (MAPs), 0.5 mM GTP, 0.5 mM MgCl2, 4% DMSO and 0.1M 4-morpholineethanesulfonate buffer (MES, pH 6.4). IC50 is the amount of inhibitor needed to inhibit tubulin polymerization 50% with respect to the amount of […] that occurs in the absence of inhibitor.

The test system of experiment [1] is MHEC-5T hemangioendothelioma tumor. The experiment can be described thus: Inhibition of tumor blood flow, Fluorescent Bead Assay. It counts as in vivo, SCID mice. The settings on record: 24 hours post-treatment, vessel area per tumor tissue area as percentage of control. The procedure: The antivascular effects of the chromene phosphate prodrug were assessed in tumor-bearing mice using a Fluorescent Bead Assay. A MHEC-5T hemangioendothelioma tumor model was established by subcutaneous injection of 0.5×10^6 cultured transformed cell murine myocardial vascular endothelial cell line (“MHEC5-T”) cells into the right flank of Fox Chase CB-17 Severe Combined Immunodeficient (“SCID”) mice. […] At 24 hours post-treatment, mice were injected intravenously with 0.25 ml of diluted FluoSphere beads (1:6 in physiological saline) in the tail vein, sacrificed after 3 minutes, and tumor was excised for cryosectioning. Tumor cryosections at a thickness of 8 um were directly examined using quantitative fluorescent microscopy. Blood vessels were indicated by blue fluorescence from injected beads. For quantification, image analysis of 3 sections from three tumors treated in each group were examined and vascular shutdown was expressed as vessel area (mm^2) per tumor tissue area (mm^2) as a percentage of the control (“% VAPM”).

The test system of the next experiment is MCF-7. The experiment can be described thus: Growth inhibition, MCF-7 breast cancer cells (SRB). It counts as cell-based. The settings on record: Homo sapiens, MCF7, 48 hours incubation, read-out: GI50 for Cell Line MCF-7. The protocol:
(§1) Newly prepared compounds were evaluated for cytotoxic activity against a variety of cell lines derived from human tumors using an assay system similar to the National Cancer Institute procedure previously described (Monks et al, J. Natl. Cancer Inst., 1991). Briefly, the cell suspensions, diluted according to the particular cell type and the expected target cell density (5,000-40,000 cells per well based on cell growth characteristics), were added by pipet (100 μl) to 96-well microtiter plates. Inoculates were allowed a preincubation time of 24-28 hours at 37° C. for stabilization. Incubation with the inhibitor compounds lasted for 48 hours in […] atmosphere and 100% humidity. Determination of cell growth was performed by in situ fixation of cells, followed by staining with a protein-binding dye sulforhodamine B (SRB), which binds to the basic amino acids of cellular macromolecules. The solubilized stain was measured spectrophotometrically.
(§2) Several compounds were evaluated for cytotoxic activity against […] P388 leukemia cell lines. The effective dose or ED50 value (defined as the effective dosage required to inhibit 50% of cell growth) was measured. These and additional compounds were evaluated in terms of growth inhibitory activity against several other human cancer cell lines including: central nervous system (“CNS”, SF-268), pancreas (BXPC-3), non-small cell lung cancer (“lung-NCS”, NCI-H460), breast (MCF-7), colon (KM20L2), ovarian (OVCAR-3), and prostate (DU-145). The growth inhibition GI50(defined as the dosage required to inhibit tumor cell growth by 50%) is listed for each cell line.

Another experiment relates to P388 leukemia cell lines. As to the kind of experiment: In vitro cytotoxicity, P388 leukemia cells (SRB). The settings on record: for IC50: P388, 48 hours incubation, read-out: ED50 for P-388 Cell Line. It counts as cell-based. The procedure: as §1, §2
The subject of the next experiment is BXPC-3. The experiment can be described thus: Growth inhibition, BXPC-3 pancreas cancer cells (SRB). It counts as cell-based. The settings on record: Homo sapiens, 48 hours incubation, read-out: GI50 for Cell Line BXPC-3. The procedure:
as §1, §2

A further experiment relates to DU-145. As to the kind of experiment: Growth inhibition, DU-145 prostate cancer cells (SRB). It counts as cell-based. Particulars: Homo sapiens, 48 hours incubation, read-out: GI50 for Cell Line DU-145. The procedure:
as §1, §2

The next experiment relates to KM20L2. The experiment can be described thus: Growth inhibition, KM20L2 colon cancer cells (SRB). It counts as cell-based. Particulars: Homo sapiens, KM-20L2, 48 hours incubation, read-out: GI50 for Cell Line KM20L2. The protocol: as §1, §2
Another experiment has as its system SF-268. As to the kind of experiment: Growth inhibition, SF-268 CNS cancer cells (SRB). It counts as cell-based. The settings on record: Homo sapiens, 48 hours incubation, read-out: GI50 for Cell Line SF-268. The protocol: as §1, §2
The next experiment has as its system NCI-H460. As to the kind of experiment: Growth inhibition, NCI-H460 non-small cell lung cancer cells (SRB). It counts as cell-based. Particulars: Homo sapiens, 48 hours incubation, read-out: GI50 for Cell Line NCI-H460. The protocol:
as §1, §2

Consider `COc1ccc(/C=C\c2cc(OC)c(OC)c(OC)c2)cc1O` [CA-4, Combretastatin A-4, reference compound], for which, in the experiment with purified tubulin, the pIC50 is […].
For `COc1ccc2c(c1O)OCC(C(=O)c1cc(OC)c(OC)c(OC)c1)=C2` [Compound 5, 3-(3′,4′,5′-Trimethoxybenzoyl)-7-methoxy-8-hydroxy-2H-chromene], in experiment [1] (10 mg/kg single i.p.), the “% VAPM at 10 mg/kg dose” value stood at 80%. Also, the “% VAPM at 100 mg/kg dose” value in [1] (100 mg/kg single i.p.) was 90%. The pIC50 with purified tubulin was 5.70 to 6.00. For the same molecule, the GI50 in the experiment on MCF-7 was 0.055 µg/mL (≈ 0.148 µM).
With `COc1ccc2c(c1)OCC(C(=O)c1cc(OC)c(OC)c(OC)c1)=C2` [Compound 8, 3-(3′,4′,5′-Trimethoxybenzoyl)-7-methoxy-2H-chromene], the pIC50 with purified tubulin is 5.00 to 5.40. In addition, in the experiment with MCF-7, the GI50 worked out at 0.27 µg/mL (≈ 0.758 µM). Also, the “ED50 for P-388 Cell Line” value with P388 leukemia cell lines (48 hours incubation) turned out to be 2.04 µg/mL.
Regarding `COc1cc2c(cc1O)C=C(C(=O)c1cc(OC)c(OC)c(OC)c1)CO2` [Compound 9, 3-(3′,4′,5′-Trimethoxybenzoyl)-6-hydroxy-7-methoxy-2H-chromene], the GI50 with BXPC-3 is 7.1 µg/mL (≈ 19.1 µM); in the experiment on DU-145 it was 3.9 µg/mL (≈ 10.5 µM); with MCF-7, 7.3 µg/mL (≈ 19.6 µM); in the experiment on KM20L2 it was greater than 10 µg/mL; in the experiment with SF-268, greater than 10 µg/mL; with NCI-H460 it was 5.5 µg/mL (≈ 14.8 µM). Moreover, the pIC50 in the experiment on purified tubulin was less than 4.40. For the same molecule, the IC50 in the experiment on P388 leukemia cell lines worked out at 28.2 µg/mL (≈ 75.7 µM).
With `COc1cc(C(=O)C2=Cc3ccc(OC)c(OC)c3OC2)cc(OC)c1OC` [Compound 12, 3-(3′,4′,5′-Trimethoxybenzoyl)-7,8-dimethoxy-2H-chromene], the concentration for 50% growth inhibition (GI50) with BXPC-3 came to 0.46 µg/mL (≈ 1.19 µM); in the experiment on DU-145, 0.16 µg/mL (≈ 0.414 µM); with MCF-7, 0.48 µg/mL (≈ 1.24 µM); with KM20L2, 0.4 µg/mL (≈ 1.04 µM); with SF-268, 0.34 µg/mL (≈ 0.88 µM); in the experiment with NCI-H460 it was 0.37 µg/mL (≈ 0.958 µM). In addition, the pIC50 with purified tubulin is 4.70. The IC50 with P388 leukemia cell lines was 0.41 µg/mL (≈ 1.06 µM).
With `COc1cc2c(cc1OC)OCC(C(=O)c1cc(OC)c(OC)c(OC)c1)=C2` [Compound 13, 3-(3′,4′,5′-Trimethoxybenzoyl)-6,7-dimethoxy-2H-chromene], the GI50 in the experiment with BXPC-3 worked out at 0.38 µg/mL (≈ 0.983 µM); with DU-145 it was 0.42 µg/mL (≈ 1.09 µM); in the experiment on MCF-7 it was 0.56 µg/mL (≈ 1.45 µM); in the experiment on KM20L2 it was 0.4 µg/mL (≈ 1.04 µM); with SF-268, 0.5 µg/mL (≈ 1.29 µM); in the experiment with NCI-H460 it was 0.4 µg/mL (≈ 1.04 µM). Besides, in the experiment with purified tubulin, the pIC50 is 4.70. Further, the IC50 in the experiment on P388 leukemia cell lines worked out at 2.5 µg/mL (≈ 6.47 µM).
For `COc1cc(OC)c2c(c1)OCC(C(=O)c1cc(OC)c(OC)c(OC)c1)=C2` [Compound 14, 3-(3′,4′,5′-Trimethoxybenzoyl)-5,7-dimethoxy-2H-chromene], the GI50 in the experiment on BXPC-3 came to 0.43 µg/mL (≈ 1.11 µM); in the experiment with DU-145, 0.24 µg/mL (≈ 0.621 µM); with MCF-7, 0.47 µg/mL (≈ 1.22 µM); in the experiment on KM20L2, 0.37 µg/mL (≈ 0.958 µM); in the experiment with SF-268, 0.4 µg/mL (≈ 1.04 µM); with NCI-H460 it was 0.4 µg/mL (≈ 1.04 µM). In addition, in the experiment with purified tubulin, the pIC50 was 4.70. Further, in the experiment on P388 leukemia cell lines, the IC50 stood at 16.3 µg/mL (≈ 42.2 µM).
With `COc1cc(C(=O)C2=Cc3cccc(O)c3OC2)cc(OC)c1OC` [Compound 15, 3-(3′,4′,5′-Trimethoxybenzoyl)-8-hydroxy-2H-chromene], the GI50 in the experiment with BXPC-3 stood at 2.4 µg/mL (≈ 7.01 µM); with DU-145, 0.026 µg/mL (≈ 0.0759 µM); in the experiment with MCF-7, 0.21 µg/mL (≈ 0.613 µM); in the experiment on KM20L2, 4 µg/mL (≈ 11.7 µM); in the experiment on SF-268, 0.048 µg/mL (≈ 0.14 µM); in the experiment on NCI-H460, 0.044 µg/mL (≈ 0.129 µM). Besides, the pIC50 with purified tubulin is 5.40 to 5.70. Also, the IC50 in the experiment with P388 leukemia cell lines is 0.093 µg/mL (≈ 0.272 µM).
Consider `COc1cc(C(=O)C2=Cc3cccc(OP(=O)(O)O)c3OC2)cc(OC)c1OC` [Compound 16, 3-(3′,4′,5′-Trimethoxybenzoyl)-8-phosphate-2H-chromene disodium salt], for which the GI50 was 1.6 µg/mL in the experiment with BXPC-3; 0.046 µg/mL with DU-145; 0.45 µg/mL with MCF-7; 5.4 µg/mL in the experiment on KM20L2; 0.058 µg/mL in the experiment with SF-268; 0.12 µg/mL in the experiment on NCI-H460. In the experiment on P388 leukemia cell lines, the IC50 stood at 0.019 µg/mL.
Turning to `COc1cc(C(=O)C2=Cc3ccc(O)c(O)c3OC2)cc(OC)c1OC` [Compound 17, 3-(3′,4′,5′-Trimethoxybenzoyl)-7,8-dihydroxy-2H-chromene], the GI50 was found to be 3 µg/mL (≈ 8.37 µM) in the experiment on BXPC-3; 0.23 µg/mL (≈ 0.642 µM) in the experiment with DU-145; 0.48 µg/mL (≈ 1.34 µM) in the experiment on MCF-7; 6.3 µg/mL (≈ 17.6 µM) with KM20L2; 0.32 µg/mL (≈ 0.893 µM) in the experiment with SF-268; 0.34 µg/mL (≈ 0.949 µM) with NCI-H460. Also, in the experiment with purified tubulin, the negative logarithm of the IC50 (pIC50) is 4.70 to 5.00. Further, the IC50 in the experiment on P388 leukemia cell lines came to 1.8 µg/mL (≈ 5.02 µM).
Consider `COc1cc(C(=O)C2=Cc3ccc(OP(=O)(O)O)c(OP(=O)(O)O)c3OC2)cc(OC)c1OC` [Compound 18, 3-(3′,4′,5′-Trimethoxybenzoyl)-7,8-diphosphate-2H-chromene tetrasodium salt], for which the GI50 is greater than 10 µg/mL in the experiment with BXPC-3; 2.2 µg/mL in the experiment on DU-145; 4.2 µg/mL with MCF-7; greater than 10 µg/mL with KM20L2; 3.4 µg/mL in the experiment with SF-268; 3.5 µg/mL with NCI-H460. The pIC50 in the experiment on purified tubulin is less than 4.40. The IC50 in the experiment with P388 leukemia cell lines came out at 0.56 µg/mL.
